Test results from patent publication US8871681B2, “Herbicidal compositions comprising 4-amino-3-chloro-5-fluoro-6-(4-chloro-2-fluoro-3-methoxyphenyl) pyridine-2-carboxylic acid or a derivative thereof and certain sulfonylureas” (Dow AgroSciences LLC, priority 2012, dated 2014).

What was measured:
[1] = test system: ECHCG (Echinochloa crus-galli, barnyardgrass); test: In-water applied weed control, transplanted paddy rice, greenhouse (Example II); format: in vivo, Echinochloa crus-galli (L.) Beauv.
Protocol: (§1) Weed seeds or nutlets of the desired test plant species were planted in puddled soil (mud) prepared by mixing a shredded, non-sterilized mineral soil (50.5 percent silt, 25.5 percent clay, and 24 percent sand, with a pH of about 7.6 and an organic matter content of about 2.9 percent) and water at a 1:1 volumetric ratio. The prepared mud was dispensed in 365 mL aliquots into 16-ounce (oz.) non-perforated plastic pots with a surface area of 86.59 square centimeters (cm^2) leaving a headspace of 3 centimeters (cm) in each pot. Rice seeds were planted in Sun Gro MetroMix® 306 planting mixture, which typically has a pH of 6.0 to 6.8 and an organic matter content of about 30 percent, in plastic plug trays. Seedlings at the second or third leaf stage of growth were transplanted into 860 mL of mud contained in 32-oz. non-perforated plastic pots with a surface area of 86.59 cm^2 4 days prior to herbicide application. The paddy was created by filling the headspace of the pots with 2.5 to 3 cm of water. When required to ensure good germination and healthy plants, a fungicide treatment and/or other chemical or physical treatment was applied. The plants were grown for 4-22 days in a greenhouse with an approximate 14 h photoperiod which was maintained at about 29′C during the day and 26° C. during the night. Nutrients were added as Osmocote® (19:6:12, N:P:K+minor nutrients) at 2 g per 16-oz. pot and 4 g per 32-oz. pot. Water was added on a regular basis to maintain the paddy flood, and supplemental lighting was provided with overhead metal halide 1000-Watt lamps as necessary. The plants were employed for testing when they reached the first through fourth true leaf stage.
(§2) Treatments consisted of the acid or esters of 4-amino-3-chloro-5-fluoro-6-(4-chloro-2-fluoro-3-methoxy-phenyl)pyridine-2-carboxylic acid (compound A) each formulated as an SC and various herbicidal components alone and in combination. Forms of compound A were applied on an acid equivalent basis.
(§3) Other herbicidal components were applied on an active ingredient basis and included acetolactate synthase (ALS)-inhibiting herbicides (sulfonylurea chemical class), azimsulfuron formulated as Gulliver®, bensulfuron-methyl formulated as Londax® 60DF, cyclosulfamuron (technical grade materail), ethoxysulfuron formulated as Sunrice® 15 WDG, flucetosulfuron formulated as Sukedachi® 1KG G, imazosulfuron formulated as Brazzos®, metsulfuron-methyl formulated as Lorate®, nicosulfuron formulated as Accent®, orthosulfamuron formulated as Strada® WG, propyrisulfuron formulated as Zeta One®, and rimsulfuron formulated as Matrix® WG.
(§4) Treatment requirements for each compound or herbicidal component were calculated based upon the rates being tested, the concentration of active ingredient or acid equivalent in the formulation, an application volume of 2 mL per component per pot, and an application area of 86.59 cm^2 per pot.
(§5) For formulated compounds, a measured amount was placed in an individual 100 or 200 mL glass vial and was dissolved in a volume of 1.25% (v/v) Agri-Dex® crop oil concentrate to obtain application solutions.
For technical grade compounds, a weighed amount was placed in an individual 100 to 200 mL glass vial and was dissolved in a volume of acetone to obtain concentrated stock solutions. […]

[2] = test system: IPOHE (Ipomoea hederacea, ivyleaf morningglory); test: Postemergence foliar-applied weed control, direct seeded rice, greenhouse (Example I); format: in vivo, Ipomoea hederacea Jacq.; conditions: 20 DAA
Source text: (§6) Seeds or nutlets of the desired test plant species were planted in a soil matrix prepared by mixing a loam or sandy loam soil (e.g., 28.6 percent silt, 18.8 percent clay, and 52.6 percent sand, with a pH of about 5.8 and an organic matter content of about 1.8 percent) and calcareous grit in an 80 to 20 ratio. The soil matrix was contained in plastic pots with a volume of 1 quart and a surface area of 83.6 square centimeters (cm^2). When required to ensure good germination and healthy plants, a fungicide treatment and/or other chemical or physical treatment was applied. The plants were grown for 8-22 days in a greenhouse with an approximate 14 h photoperiod which was maintained at about 29° C. during the day and 26° C. during the night. Nutrients (Peters Excel® 15-5-15 5-Ca 2-Mg and iron chelate) were applied in the irrigation solution as needed and water was added on a regular basis. Supplemental lighting was provided with overhead metal halide 1000-Watt lamps as necessary. The plants were employed for testing when they reached the first through fourth true leaf stage.
(§7) Treatments consisted of the acid or esters of 4-amino-3-chloro-5-fluoro-6-(4-chloro-2-fluoro-3-methoxy-phenyl)pyridine-2-carboxylic acid (Compound A), each formulated as an SC, and various herbicidal components alone and in combination. Forms of compound A were applied on an acid equivalent basis.
(§8) Other herbicidal components were applied on an active ingredient basis and included acetolactate synthase (ALS)-inhibiting herbicides (sulfonylurea chemical class) azimsulfuron formulated as Gulliver®, bensulfuron-methyl formulated as Londax® 60DF, cyclosulfamuron (technical material), ethoxysulfuron formulated as Sunrice® 15 WDG, flazasulfuron formulated as Katana®, flucetosulfuron formulated as Sukedachi® 1KG G, foramsulfuron formulated as Option®, imazosulfuron formulated as Brazzos® WG, iodosulfuron-methyl-sodium formulated as Hussar®, metsulfuron-methyl formulated as Lorate®, nicosulfuron formulated as Accent®, orthosulfamuron formulated as Strada® WG, primisulfuron-methyl (technical material), propyrisulfuron formulated as Zeta One®, rimsulfuron formulated as Matrix® WG, sulfometuron-methyl formulated as Oust®, and trifloxysulfuron-sodium formulated as Monument® 75WG.
(§9) Treatment requirements were calculated based upon the rates being tested, the concentration of active ingredient or acid equivalent in the formulation, and a 12 mL application volume at a rate of 187 L/ha.
(§10) For treatments comprised of formulated compounds, measured amounts of compounds were placed individually in 25 mL glass vials and diluted in a volume of 1.25% (v/v) Agri-Dex® crop oil concentrated to obtain 12× stock solutions. […] Application solutions were prepared by adding an appropriate amount of each stock solution (e.g., 1 mL) and diluted to the appropriate final concentrations with the addition of 10 mL of an aqueous mixture of 1.25% (v/v) crop oil concentrate so that the final spray solutions contained 1.25+/−0.05% (v/v) Agrcrop oil concentrate.
(§11) For treatments comprised of formulated and technical compounds, weighed amounts of the technical materials were placed individually in 25 mL glass vials and dissolved in a volume of 97:3 v/v acetone/DMSO to obtain 12× stock solutions, and measured amounts of the formulated compounds were placed individually in 25 mL glass vials and diluted in a volume of 1.25% (v/v) crop oil concentrate to obtain 12× stock solutions. […] Application solutions were prepared by adding an appropriate amount of each stock solution (e.g., 1 mL) and diluted to the appropriate final concentrations with the addition of an appropriate amount of an aqueous mixture of 1.5% (v/v) crop oil concentrate so that the final spray solutions contained 1.25% (v/v) crop oil concentrate. […]

[3] = test system: CYPES (Cyperus esculentus, yellow nutsedge); test: as above; format: in vivo, Cyperus esculentus L.; conditions: 20 DAA
Source text: as §6, §7, §8, §9, §10, §11

[4] = test system: LEFCH (Leptochloa chinensis, Chinese sprangletop); test: In-water applied weed control, transplanted paddy rice, greenhouse (Example II); format: in vivo, Leptochloa chinensis (L.) Nees
Protocol: as §1, §2, §3, §4, §5
(§12) For technical grade compounds, a weighed amount was placed in an individual 100 to 200 mL glass vial and was dissolved in a volume of acetone to obtain concentrated stock solutions. […] The concentrated stock solutions obtained were diluted with an equivalent volume of an aqueous mixture containing 2.5% (v/v) crop oil concentrate so that the final application solutions contained 1.25% (v/v) crop oil concentrate.
(§13) Applications were made by injecting with a pipetter appropriate amounts of the application solutions, individually and sequentially, into the aqueous layer of the paddy. Control plants were treated in the same manner with the solvent blank. Applications were made so that all treated plant material received the same concentrations of acetone and crop oil concentrate. […]

[5] = test system: CYPRO (Cyperus rotundus, purple nutsedge); test: as above; format: in vivo, Cyperus rotundus L.
Protocol: as §1, §2, §3, §4, §5, §12, §13

[6] = test system: DIGSA (Digitaria sanguinalis, large crabgrass); test: Postemergence foliar-applied weed control, direct seeded rice, greenhouse (Example I); format: in vivo, Digitaria sanguinalis (L.) Scop.
Source text: as §6, §7, §8, §9, §10, §11

[7] = test system: FIMMI (Fimbristylis miliacea, globe fringerush); test: In-water applied weed control, transplanted paddy rice, greenhouse (Example II); format: in vivo, Fimbristylis miliacea (L.) Vahl
Protocol: as §1, §2, §3, §4, §5, §12, §13

[8] = test system: SCPMA (Bolboschoenus maritimus or Schoenoplectus maritimus, sea clubrush); test: as above; format: in vivo, Bolboschoenus maritimus (L.) Palla
In short: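 Transplanted rice and weeds at first to fourth true leaf stage in flooded mud pots (2.5–3 cm water), greenhouse ~29/26 °C day/night. Herbicides alone or mixed, in 1.25% crop oil concentrate (acetone for technical material), injected into the flood; visual 0–100% injury after ~3 weeks, expected mixture effects by Colby.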

[9] = test system: BRAPP (Brachiaria platyphylla, broadleaf signalgrass); test: Postemergence foliar-applied weed control, direct seeded rice, greenhouse (Example I); format: in vivo, Brachiaria platyphylla (Griseb.) Nash; conditions: Urochloa platyphylla, post-emergence, 504 h, 21 DAA, read-out: Visual Weed Control (%) Obs
In short: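 Greenhouse-grown plants (14 h photoperiod, 29/26 °C day/night) at first to fourth true leaf stage sprayed overhead at 187 L/ha with Compound A (acid equivalent basis) alone or mixed with sulfonylurea ALS inhibitors (active ingredient basis). Final spray contained 1.25% v/v crop oil concentrate; controls received solvent blank.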

[10] = test system: ECHCO (Echinochloa colona, junglerice); test: In-water applied weed control, transplanted paddy rice, greenhouse (Example II); format: in vivo, Echinochloa colona (L.) Link
Protocol: as §1, §2, §3, §4, §5, §12, §13

[11] = test system: LEFCH (Leptochloa chinensis, Chinese sprangletop); test: Postemergence foliar-applied weed control, direct seeded rice, greenhouse (Example I); format: in vivo, Leptochloa chinensis (L.) Nees; conditions: Dinebra chinensis, post-emergence, 576 h, 24 DAA, read-out: Visual Weed Control (%) Obs
Source text: as §6, §7, §8, §9, §10, §11

SMILES: CCS(=O)(=O)c1cccnc1S(=O)(=O)NC(=O)Nc1nc(OC)cc(OC)n1 [Rimsulfuron, N-[[(4,6-dimethoxy-2-pyrimidinyl)amino]carbonyl]-3-(ethylsulfonyl)-2-pyridinesulfonamide, reference compound]
- Visual Weed Control (%) - 20 DAA ECHCG Obs ([1]; Table 50, 4.38 gai/ha alone): 0%
- Visual Weed Control (%) - 20 DAA ECHCG Obs ([1]; Table 50, 8.75 gai/ha alone): 0%
- Visual Weed Control (%) Obs ([2]; 4.38 gai/ha): 60%
- Visual Weed Control (%) Obs ([2]; 8.75 gai/ha): 75%
- Visual Weed Control (%) Obs ([3]; 2.19 gai/ha): 0%
- Visual Weed Control (%) Obs ([3]; 4.38 gai/ha): 0%
- Visual Weed Control (%) Obs ([3]; 8.75 gai/ha): 60%
- Visual Weed Control (%) - 20 DAA LEFCH Obs ([4]; Table 49, 4.38 gai/ha alone): 0%
- Visual Weed Control (%) - 20 DAA LEFCH Obs ([4]; Table 50, 4.38 gai/ha alone): 0%
- Visual Weed Control (%) - 20 DAA LEFCH Obs ([4]; Table 50, 8.75 gai/ha alone): 30%
- Visual Weed Control (%) - 20 DAA CYPRO Obs ([5]; Table 49, 4.38 gai/ha alone): 0%
- Visual Weed Control (%) - 20 DAA CYPRO Obs ([5]; Table 50, 4.38 gai/ha alone): 0%
- Visual Weed Control (%) Obs ([6]; 20 DAA, 8.75 gai/ha): 70%

SMILES: CCCc1ccc2nc(Cl)c(S(=O)(=O)NC(=O)Nc3nc(OC)cc(OC)n3)n2n1 [Propyrisulfuron, 2-chloro-N-[[(4,6-dimethoxy-2-pyrimidinyl)amino]carbonyl]-6-propylimidazo[1,2-b]pyridazine-3-sulfonamide, reference compound]
- Visual Weed Control (%) - 21 DAA FIMMI Obs ([7]; Table 48, 11.25 gai/ha alone): 85%
- Visual Weed Control (%) - 21 DAA FIMMI Obs ([7]; Table 48, 22.5 gai/ha alone): 88%
- Visual Weed Control (%) - 21 DAA FIMMI Obs ([7]; Table 48, 45 gai/ha alone): 95%
- Visual Weed Control (%) - 21 DAA SCPMA Obs ([8]; Table 48, 11.25 gai/ha alone): 80%
- Visual Weed Control (%) - 21 DAA LEFCH Obs ([4]; Table 47, 22.5 gai/ha alone): 0%
- Visual Weed Control (%) - 21 DAA LEFCH Obs ([4]; Table 47, 45 gai/ha alone): 0%
- pest or weed control at 11.25 g/ha ([9]; 11.25 gai/ha): 0%
- pest or weed control at 22.5 g/ha ([9]; 22.5 gai/ha): 20%
- pest or weed control at 45 g/ha ([9]; 45 gai/ha): 10%

SMILES: COc1cc(OC)nc(NC(=O)NS(=O)(=O)c2c(Cl)nc3ccccn23)n1 [Imazosulfuron, 2-chloro-N-[[(4,6-dimethoxy-2-pyrimidinyl)amino]carbonyl]imidazo[1,2-a]pyridine-3-sulfonamide, reference compound]
- Visual Weed Control (%) - 20 DAA SCPMA Obs ([8]; Table 38, 168 gai/ha alone): 65%
- Visual Weed Control (%) - 20 DAA SCPMA Obs ([8]; Table 39, 168 gai/ha alone): 65%
- Visual Weed Control (%) - 20 DAA SCPMA Obs ([8]; Table 40, 168 gai/ha alone): 65%
- Visual Weed Control (%) - 21 DAA ECHCO Obs ([10]; Table 38, 22.5 gai/ha alone): 20%
- Visual Weed Control (%) - 21 DAA ECHCO Obs ([10]; Table 38, 45 gai/ha alone): 20%
- Visual Weed Control (%) - 21 DAA ECHCO Obs ([10]; Table 39, 45 gai/ha alone): 20%
- Visual Weed Control (%) Obs ([6]; 24 DAA, 21 gai/ha): 0%
- Visual Weed Control (%) Obs ([6]; 24 DAA, 42 gai/ha): 0%
- pest or weed control at 21 g/ha ([11]; 21 gai/ha): 0%
- pest or weed control at 42 g/ha ([11]; 42 gai/ha): 0%
- pest or weed control at 84 g/ha ([11]; 84 gai/ha): 0%
